Measurements as given in patent US11111233B2, “Amino pyrimidine compound for inhibiting protein tyrosine kinase activity” (Shenzhen TargetRx, Inc., priority 2016, dated 2021).
pIC50: −log10 of the molar value. Read-outs that look alike come from different tables or passages of the source.

Key:
[1] = system: Skin cancer cell line A431 (WT); assay: Cytotoxicity test (MTS cell viability), A431; type: cell-based; details: Homo sapiens; for pIC50: A-431, MTS, 72 hours, read-out: A431 (WT) IC50
WT EGFR = WT EGFR (Homo sapiens (Human), UniProt P00533); assay: Kinase inhibition assay (HTRF), WT EGFR; type: biochemical; details: HTRF Kinase TK kit, 10 min pre-incubation, 20 min reaction
[2] = system: lung cancer cells HCC827 (Del19); assay: Cytotoxicity test (MTS cell viability), HCC827; type: cell-based; details: Homo sapiens; for IC50: HCC827, 72 h, read-out: HCC827 (Del19) IC50(nM); for pIC50: HCC827, MTS, 72 hours, read-out: HCC827 (Del19) IC50
EGFR [L858R/T790M] = EGFR [L858R/T790M] (Homo sapiens (Human), UniProt P00533, L858R/T790M); assay: Kinase inhibition assay (HTRF), EGFR [L858R/T790M]; type: biochemical; details: HTRF Kinase TK kit, 10 min pre-incubation, 20 min reaction; read-out: EGFR(L858R/T790M) IC50
EGFR [L858R/T790M], sequence (P00533 25-1210 T790M/L858R): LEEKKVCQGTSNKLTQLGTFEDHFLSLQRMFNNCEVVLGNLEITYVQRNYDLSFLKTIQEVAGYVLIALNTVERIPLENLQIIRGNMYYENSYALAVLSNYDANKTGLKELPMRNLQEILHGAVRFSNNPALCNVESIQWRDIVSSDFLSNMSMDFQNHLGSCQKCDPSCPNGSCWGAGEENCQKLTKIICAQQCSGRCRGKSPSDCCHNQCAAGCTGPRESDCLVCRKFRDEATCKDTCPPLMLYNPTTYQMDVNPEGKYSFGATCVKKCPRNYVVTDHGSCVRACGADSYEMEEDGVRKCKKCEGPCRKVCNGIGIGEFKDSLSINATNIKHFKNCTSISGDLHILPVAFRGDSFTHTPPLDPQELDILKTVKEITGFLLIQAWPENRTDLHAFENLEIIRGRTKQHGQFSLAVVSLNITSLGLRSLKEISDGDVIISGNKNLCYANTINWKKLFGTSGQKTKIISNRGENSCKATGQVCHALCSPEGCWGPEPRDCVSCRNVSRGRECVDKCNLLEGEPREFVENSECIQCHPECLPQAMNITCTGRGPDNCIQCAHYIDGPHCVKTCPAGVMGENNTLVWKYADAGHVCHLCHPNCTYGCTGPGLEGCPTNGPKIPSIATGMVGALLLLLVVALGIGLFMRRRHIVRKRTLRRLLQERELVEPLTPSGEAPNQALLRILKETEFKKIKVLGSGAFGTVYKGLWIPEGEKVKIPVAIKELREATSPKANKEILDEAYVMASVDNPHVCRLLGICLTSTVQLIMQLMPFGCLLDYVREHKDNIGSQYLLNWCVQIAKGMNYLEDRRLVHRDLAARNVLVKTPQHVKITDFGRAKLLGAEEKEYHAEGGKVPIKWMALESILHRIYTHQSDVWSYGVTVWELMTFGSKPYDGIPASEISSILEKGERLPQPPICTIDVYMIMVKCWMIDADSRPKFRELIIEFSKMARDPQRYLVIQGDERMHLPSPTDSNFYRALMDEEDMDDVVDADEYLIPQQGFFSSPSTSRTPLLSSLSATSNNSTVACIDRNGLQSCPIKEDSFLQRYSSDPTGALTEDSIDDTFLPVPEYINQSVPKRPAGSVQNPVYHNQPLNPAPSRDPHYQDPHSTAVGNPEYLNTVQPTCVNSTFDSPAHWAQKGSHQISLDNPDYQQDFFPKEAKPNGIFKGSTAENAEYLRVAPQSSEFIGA

WT EGFR, sequence (P00533 25-1210): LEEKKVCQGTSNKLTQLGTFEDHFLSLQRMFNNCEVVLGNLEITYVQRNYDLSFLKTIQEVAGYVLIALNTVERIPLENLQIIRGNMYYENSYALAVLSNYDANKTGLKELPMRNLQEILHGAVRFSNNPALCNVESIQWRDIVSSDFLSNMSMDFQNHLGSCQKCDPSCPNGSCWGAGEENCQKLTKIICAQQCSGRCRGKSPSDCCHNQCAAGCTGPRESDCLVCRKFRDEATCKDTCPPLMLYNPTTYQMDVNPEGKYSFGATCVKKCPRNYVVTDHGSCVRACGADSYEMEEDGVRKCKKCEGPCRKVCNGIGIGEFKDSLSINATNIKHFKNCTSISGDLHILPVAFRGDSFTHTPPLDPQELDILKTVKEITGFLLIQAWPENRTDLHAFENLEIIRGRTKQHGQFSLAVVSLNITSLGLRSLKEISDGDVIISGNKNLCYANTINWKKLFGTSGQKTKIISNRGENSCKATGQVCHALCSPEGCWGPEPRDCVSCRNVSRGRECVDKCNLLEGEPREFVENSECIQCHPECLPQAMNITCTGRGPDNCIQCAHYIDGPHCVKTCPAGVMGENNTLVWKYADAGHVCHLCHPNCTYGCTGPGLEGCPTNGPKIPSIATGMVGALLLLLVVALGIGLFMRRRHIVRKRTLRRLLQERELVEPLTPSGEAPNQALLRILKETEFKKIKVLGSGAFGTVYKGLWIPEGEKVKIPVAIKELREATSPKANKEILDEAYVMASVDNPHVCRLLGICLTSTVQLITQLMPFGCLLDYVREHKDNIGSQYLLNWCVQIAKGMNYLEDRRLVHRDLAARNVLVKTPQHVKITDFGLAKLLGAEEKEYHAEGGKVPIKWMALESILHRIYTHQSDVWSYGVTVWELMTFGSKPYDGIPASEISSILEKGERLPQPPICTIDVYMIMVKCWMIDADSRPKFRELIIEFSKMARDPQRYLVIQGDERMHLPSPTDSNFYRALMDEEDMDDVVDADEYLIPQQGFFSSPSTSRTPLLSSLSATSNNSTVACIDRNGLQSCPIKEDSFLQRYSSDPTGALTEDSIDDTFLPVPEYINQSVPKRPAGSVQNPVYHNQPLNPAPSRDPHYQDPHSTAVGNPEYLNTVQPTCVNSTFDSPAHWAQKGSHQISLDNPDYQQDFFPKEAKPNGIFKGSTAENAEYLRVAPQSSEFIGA

pIC50 (WT EGFR)	pIC50 (EGFR [L858R/T790M])	SMILES	pIC50 [1]	IC50 [2]	pIC50 [2]	IC50 ([1]; A-431, 72 h, read-out: A431 (WT) IC50(nM))
7.30 to 9.00	> 9.00	C=CC(=O)Nc1cc(Nc2nccc(-c3cc(F)c4nc(C)n(C5CC5)c4c3)n2)c(OC)cc1N(C)CCN(C)C [Example 20, N-(5-((4-(1-cyclopropyl-4-fluoro-2-methyl-1H-benzo[d]imidazole-6-yl)pyrimidin-2-yl)amino)-2-((2-(dimethylamino)ethyl)(methyl)amino)-4-methoxyphenyl)acrylamide]	6.40 to 7.00	–	7.00 to 8.00	–
7.30 to 9.00	> 9.00	C=CC(=O)Nc1cc(Nc2nccc(-c3cc(F)c4nc(CF)n(C(C)C)c4c3)n2)c(OC)cc1N(C)CCN(C)C [Example 21, N-(2-((2-(dimethylamino)ethyl)(methyl)amino)-5-((4-(4-fluoro-2-(fluoromethyl)-1-isopropyl-1H-benzo[d]imidazole-6-yl)pyrimidin-2-yl)amino)-4-methoxyphenyl)acrylamide]	6.40 to 7.00	–	> 8.00	–
7.30 to 9.00	> 9.00	C=CC(=O)Nc1cc(Nc2nccc(-c3cc(F)c4cnn(C(C)C)c4c3)n2)c(OC)cc1N(C)CCN(C)C [Example 26, N-(2-((2-(dimethylamino)ethyl)(methyl)amino)-5-((4-(4-fluoro-1-isopropyl-1H-indazole-6-yl)pyrimidin-2-yl)amino)-4-methoxyphenyl)acrylamide]	6.00 to 6.40	–	7.00 to 8.00	–
7.30 to 9.00	7.30 to 9.00	C=CC(=O)Nc1cc(Nc2nccc(-c3cc(F)c4nc(C)c(C(C)C)n4c3)n2)c(OC)cc1N(C)CCN(C)C [Example 28, N-(2-((2-(dimethylamino)ethyl)(methyl)amino)-5-((4-(8-fluoro-3-isopropyl-2-methylimidazo[1,2-a]pyridine-6-yl)pyrimidin-2-yl)amino)-4-methoxyphenyl)acrylamide]	6.00 to 6.40	–	7.00 to 8.00	–
7.30 to 9.00	7.30 to 9.00	C=CC(=O)Nc1cc(Nc2nccc(-c3cc(F)c4nc(C)cn4c3)n2)c(OC)cc1N(C)CCN(C)C [Example 29, N-(2-((2-(dimethylamino)ethyl)(methyl)amino)-5-((4-(8-fluoro-2-methylimidazo[1,2-a]pyridine-6-yl)pyrimidin-2-yl)amino)-4-methoxyphenyl)acrylamide]	6.00 to 6.40	–	6.40 to 7.00	–
7.30 to 9.00	7.30 to 9.00	C=CC(=O)Nc1cc(Nc2nccc(-c3cc(F)c4nc(C)oc4c3)n2)c(OC)cc1N(C)CCN(C)C [Example 32, N-(2-((2-(dimethylamino)ethyl)(methyl)amino)-5-((4-(4-fluoro-2-methylbenzo[d]oxazole-6-yl)pyrimidin-2-yl)amino)-4-methoxyphenyl)acrylamide]	< 6.00	–	7.00 to 8.00	–
7.30 to 9.00	> 9.00	C=CC(=O)Nc1cc(Nc2nccc(-c3cc(F)c4ocnc4c3)n2)c(OC)cc1N(C)CCN(C)C [Example 33, N-(2-((2-(dimethylamino)ethyl)(methyl)amino)-5-((4-(7-fluorobenzo[d]oxazole-5-yl)pyrimidin-2-yl)amino)-4-methoxyphenyl)acrylamide]	< 6.00	–	7.00 to 8.00	–
7.30 to 9.00	> 9.00	C=CC(=O)Nc1cc(Nc2nccc(-c3cc(F)c4[nH]ncc4c3)n2)c(OC)cc1N(C)CCN(C)C [Example 38, N-(2-((2-(dimethylamino)ethyl)(methyl)amino)-5-((4-(7-fluoro-1H-indazole-5-yl)pyrimidin-2-yl)amino)-4-methoxyphenyl)acrylamide]	< 6.00	–	7.00 to 8.00	–
7.30 to 9.00	> 9.00	C=CC(=O)Nc1cc(Nc2nccc(-c3cc(F)c4nn(C)cc4c3)n2)c(OC)cc1N(C)CCN(C)C [Example 40, N-(2-((2-(dimethylamino)ethyl)(methyl)amino)-5-((4-(7-fluoro-2-methyl-2H-indazole-5-yl)pyrimidin-2-yl)amino)-4-methoxyphenyl)acrylamide]	6.00 to 6.40	–	7.00 to 8.00	–
> 9.00	> 9.00	C=CC(=O)Nc1cc(Nc2nccc(-c3cc(F)c4nn(C)c(C(C)C)c4c3)n2)c(OC)cc1N(C)CCN(C)C [Example 41, N-(2-((2-(dimethylamino)ethyl)(methyl)amino)-5-((4-(7-fluoro-3-isopropyl-2-methyl-2H-indazole-5-yl)pyrimidin-2-yl)amino)-4-methoxyphenyl)acrylamide]	6.40 to 7.00	–	> 8.00	–

Continued, molecule first:

SMILES	pIC50 (WT EGFR)	pIC50 (EGFR [L858R/T790M])	pIC50 [1]	IC50 [2]	pIC50 [2]	IC50 ([1]; A-431, 72 h, read-out: A431 (WT) IC50(nM))
C=CC(=O)Nc1cc(Nc2nccc(-c3cc(F)c4nc(C)n(C(C)C)c4c3)n2)c(OC)cc1N1CCC(O)CC1 [Example 17, N-(2-(4-hydroxypiperidine-1-yl)-5-((4-(4-fluoro-1-isopropyl-2-methyl-1H-benzo[d]imidazole-6-yl)pyrimidin-2-yl)amino)-4-methoxyphenyl)acrylamide]	< 7.00	7.30 to 9.00	< 6.00	100 to 400 nM	–	–
C=CC(=O)Nc1cc(Nc2nccc(-c3cnc4nc(C)n(C(C)C)c4c3)n2)c(OC)cc1N(C)CCN(C)C [Example 22, N-(2-((2-(dimethylamino)ethyl)(methyl)amino)-5-((4-(1-isopropyl-2-methyl-1H-imidazo[4,5-b]pyridine-6-yl)pyrimidin-2-yl)amino)-4-methoxyphenyl)acrylamide]	7.30 to 9.00	7.30 to 9.00	–	10 to 100 nM	–	100 to 400 nM
C=CC(=O)Nc1cc(Nc2nccc(-c3ccc4nc(OC)n(C(C)C)c4c3)n2)c(OC)cc1N(C)CCN(C)C [Example 24, N-(2-((2-(dimethylamino)ethyl)(methyl)amino)-5-((4-(1-isopropyl-2-methoxy-1H-benzo[d]imidazole-6-yl)pyrimidin-2-yl)amino)-4-methoxyphenyl)acrylamide]	7.30 to 9.00	7.30 to 9.00	6.00 to 6.40	–	7.00 to 8.00	–
C=CC(=O)Nc1cc(Nc2nccc(-c3ccc4oc(=O)n(C)c4c3)n2)c(OC)cc1N(C)CCN(C)C [Example 25, N-(2-((2-(dimethylamino)ethyl)(methyl)amino)-4-methoxy-5-((4-(3-methyl-2-oxo-2,3-di hydrobenzo[d]oxazole-5-yl)pyrimidin-2-yl)amino)phenyl)acrylamide]	7.30 to 9.00	7.30 to 9.00	< 6.00	–	6.40 to 7.00	–
C=CC(=O)Nc1cc(Nc2nccc(-c3ccc4cnn(C(C)C)c4c3)n2)c(OC)cc1N(C)CCN(C)C [Example 27, N-(2-((2-(dimethylamino)ethyl)(methyl)amino)-5-((4-(1-isopropyl-1H-indazole-6-yl)pyrimidin-2-yl)amino)-4-methoxyphenyl)acrylamide]	7.30 to 9.00	> 9.00	6.00 to 6.40	–	7.00 to 8.00	–
C=CC(=O)Nc1cc(Nc2nccc(-c3cc(OC(C)(C)C)c4nc(C)n(C(C)C)c4c3)n2)c(OC)cc1N(C)CCN(C)C [Example 30, N-(5-((4-(4-(tert-butoxy)-1-isopropyl-2-methyl-1H-benzo[d]imidazole-6-yl)pyrimidin-2-yl)amino)-2-((2-(dimethylamino)ethyl)(methyl)amino)-4-methoxyphenyl)acrylamide]	> 9.00	> 9.00	< 6.00	–	> 8.00	–
C=CC(=O)Nc1cc(Nc2ncc(F)c(-c3cc(F)c4nc(C)c(C(C)C)n4c3)n2)c(OC)cc1N(C)CCN(C)C [Example 34, N-(2-((2-(dimethylamino)ethyl)(methyl)amino)-5-((5-fluoro-4-(8-fluoro-3-isopropyl-2-methylimidazo[1,2-a]pyridine-6-yl)pyrimidin-2-yl)amino)-4-methoxyphenyl)acrylamide]	7.30 to 9.00	> 9.00	< 6.00	–	7.00 to 8.00	–
C=CC(=O)Nc1cc(Nc2nccc(-c3ccc4nc(C)n(C(C)C)c4c3)n2)c(OC)cc1N(C)CCN(C)C [Example 35, N-(2-((2-(dimethylamino)ethyl)(methyl)amino)-5-((4-(1-isopropyl-2-methyl-1H-benzo[d]imidazole-6-yl)pyrimidin-2-yl)amino)-4-methoxyphenyl)acrylamide]	7.30 to 9.00	> 9.00	6.00 to 6.40	–	7.00 to 8.00	–
C=CC(=O)Nc1cc(Nc2nccc(-c3ccc4nn(C)c(C(C)C)c4c3)n2)c(OC)cc1N(C)CCN(C)C [Example 42, N-(2-((2-(dimethylamino)ethyl)(methyl)amino)-5-((4-(3-isopropyl-2-methyl-2H-indazole-5-yl)pyrimidin-2-yl)amino)-4-methoxyphenyl)acrylamide]	> 9.00	> 9.00	6.40 to 7.00	–	> 8.00	–
C=CC(=O)Nc1cc(Nc2nccc(-c3ccc4nccn4n3)n2)c(OC)cc1N(C)CCN(C)C [Example 43, N-(2-((2-(dimethylamino)ethyl)(methyl)amino)-5-((4-(imidazo[1,2-b]pyridazine-6-yl)pyrimidin-2-yl)amino)-4-methoxyphenyl)acrylamide]	7.00 to 7.30	7.30 to 9.00	< 6.00	–	6.40 to 7.00	–
C=CC(=O)Nc1cc(Nc2nccc(-c3cc4c5c(c3)n(C(C)C)c(=O)n5CCC4)n2)c(OC)cc1N(C)CCN(C)C [Example 44, N-(2-((2-(dimethylamino)ethyl)(methyl)amino)-5-((4-(1-isopropyl-2-oxo-1,2,5,6-tetrahydro-4H-imidazo[4,5,1-ij]quinolin-8-yl)pyrimidin-2-yl)amino)-4-methoxyphenyl)acrylamide]	7.30 to 9.00	> 9.00	6.00 to 6.40	–	> 8.00	–
